Measurements as given in patent publication US6713475B2, “Tricyclic benzodiazepines as vasopressin receptor antagonists” (Ortho-McNeil Pharmaceutical, Inc., priority 1999, dated 2004).
Values joined by “and” are separate entries in the source; they are usually repeats but may differ in a detail not shown here. Equal values may be shown once.

What was measured:
[1] = biological target: V2 (Homo sapiens, UniProt P30518); assay: In vitro recombinant vasopressin receptor binding assay (V2 Bdg), displacement of 3H-arginine vasopressin; parameters: expressed in transfected cells; host or cells: HEK-293; settings: for V2 Bdg % inh: 0.1 uM, printed in parentheses in place of IC50; for IC50: membrane with cloned human V-2 receptor (HEK-293); for inhibition at 0.1 µM: read-out: V2 Bdg % inh
Sequence of V2 (P30518 whole entry): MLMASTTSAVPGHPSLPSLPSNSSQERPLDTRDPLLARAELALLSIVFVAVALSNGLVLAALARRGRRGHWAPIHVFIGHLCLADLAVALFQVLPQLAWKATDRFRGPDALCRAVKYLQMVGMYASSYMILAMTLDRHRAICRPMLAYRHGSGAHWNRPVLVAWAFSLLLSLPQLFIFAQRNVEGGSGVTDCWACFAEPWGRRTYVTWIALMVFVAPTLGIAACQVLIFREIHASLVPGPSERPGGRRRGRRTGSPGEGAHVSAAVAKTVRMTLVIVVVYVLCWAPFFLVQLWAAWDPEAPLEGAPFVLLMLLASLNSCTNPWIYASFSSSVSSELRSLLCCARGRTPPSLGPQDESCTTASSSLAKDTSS
Description: (§1) In vitro Recombinant Vasopressin Receptor Binding Assay
Compounds were assessed for their ability to displace ^3H-arginine vasopressin from the human V-1 or V-2 receptor in HEK-293 cells. […] Into wells of 96-well round bottom polypropylene plates were added buffer, test compound, membrane (containing cloned human V-1 or V-2 receptor), and ^3H-vasopressin. The reaction plates were allowed to sit at room temperature for one hour. The samples were filtered through Unifilter GF/C plates (presoaked in 0.3 polyethyleneimine). The plates were washed 5 times with cold physiological saline containing 0.05% Tween 20. After drying, the bottom of the filter plates were sealed and 0.025 ml of Microscint-20 was added to each filter. The top of the plate was sealed, and the plate was counted.

[2] = biological target: T1, human V-1 receptor (Homo sapiens, UniProt P37288); assay: In vitro recombinant vasopressin receptor binding assay (V1 Bdg), displacement of 3H-arginine vasopressin; settings: for V1 Bdg % inh: 1 uM
T1 construct: expressed in transfected cells; host or cells: HEK-293
T1 sequence (P37288 whole entry): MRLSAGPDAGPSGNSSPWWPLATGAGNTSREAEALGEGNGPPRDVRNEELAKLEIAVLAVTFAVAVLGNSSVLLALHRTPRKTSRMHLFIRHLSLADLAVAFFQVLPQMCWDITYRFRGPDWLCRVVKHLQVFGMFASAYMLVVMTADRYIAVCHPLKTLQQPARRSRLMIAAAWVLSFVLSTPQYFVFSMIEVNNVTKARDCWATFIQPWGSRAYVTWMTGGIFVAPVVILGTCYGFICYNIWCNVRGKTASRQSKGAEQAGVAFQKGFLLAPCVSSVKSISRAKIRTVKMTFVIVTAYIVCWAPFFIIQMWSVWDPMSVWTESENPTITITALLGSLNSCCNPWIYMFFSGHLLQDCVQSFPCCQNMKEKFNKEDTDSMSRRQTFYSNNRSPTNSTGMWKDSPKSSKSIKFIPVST
Description: as §1
Compounds were assessed for their ability to displace ^3H-arginine vasopressin from the human V-1 or V-2 receptor in HEK-293 cells. Assay buffer is 50 mM Tris-Cl, 5 mM MgCl2, 0.1% BSA (pH 7.5) containing 5 ug/ml of aprotinin, leupeptin, pepstatin, 50 ug/ml bacitracin, and 1 mM Pefabloc. ^3H-vasopressin is ^3H-arginine-8-vasopressin (68.5 Ci/mmol, final concentration in assay is 0.65-0.75 nM). Into wells of 96-well round bottom polypropylene plates were added buffer, test compound, membrane (containing cloned human V-1 or V-2 receptor), and ^3H-vasopressin. The reaction plates were allowed to sit at room temperature for one hour. The samples were filtered through Unifilter GF/C plates (presoaked in 0.3 polyethyleneimine). The plates were washed 5 times with cold physiological saline containing 0.05% Tween 20. After drying, the bottom of the filter plates were sealed and 0.025 ml of Microscint-20 was added to each filter. The top of the plate was sealed, and the plate was counted. Non-specific binding was determined by the addition of 1.25 uM arginine-8-vasopressin in those wells.

Molecule	IC50 [1]	other results
Cc1c(I)cccc1C(=O)Nc1ccc(C(=O)N2CC3CSCCN3Cc3ccccc32)c(Cl)c1 (racemic) [Compound 44, (RS)-2-Methyl-3-iodo-N-[3-chloro-4-(1,3,4,12a-tetrahydro-6H-[1,4]thiazino[4,3-a][1,4]-benzodiazepin-11(12H)-yl-carbonyl)phenyl]benzamide]	–	V2 Bdg % inh [1]: (43%/0.1 uM); V1 Bdg (% inh, 0.1 uM) ([2]; 0.1 uM): 2%
COc1ccc(C(=O)Nc2ccc(C(=O)N3CC4COCCN4Cc4ccccc43)c(Cl)c2)c(-c2ccccc2)c1 (racemic) [Compound 115, (RS)-2-Phenyl-4-methoxy-N-[3-chloro-4-(1,3,4,12a-tetrahydro-6H-[1,4]oxazino[4,3-a][1,4]-benzodiazepin-11(12H)-yl-carbonyl)phenyl]benzamide]	9 nM	–
Cc1csc(-c2ccccc2C(=O)Nc2ccc(C(=O)N3CC4CSCCN4Cc4ccccc43)cc2)c1 (racemic) [Compound 53, (RS)-2-(4-Methyl-2-thienyl)-N-[4-(1,3,4,12a-tetrahydro-6H-[1,4]thiazino[4,3-a][1,4]-benzodiazepin-11(12H)-yl-carbonyl)phenyl]benzamide]	15 nM	–
O=C(Nc1ccc(C(=O)N2CC3CN(Cc4ccccc4)CCN3Cc3ccccc32)cc1)c1ccccc1-c1ccccc1 (racemic) [Compound 57, (RS)-2-Phenyl-N-[4-(1,3,4,12a-tetrahydro-2-benzyl-6H-[1,4]pyrazino[4,3-a][1,4]-benzodiazepin-11(12H)-yl-carbonyl)phenyl]benzamide]	–	V2 Bdg % inh [1]: (25%/0.1 uM)
O=C(Nc1ccc(C(=O)N2CC3CSCCN3Cc3ccccc32)c(Cl)c1)c1ccccc1-c1ccsc1 (racemic) [Compound 50, (RS)-2-(3-Thienyl)-N-[3-chloro-4-(1,3,4,12a-tetrahydro-6H-[1,4]thiazino[4,3-a][1,4]-benzodiazepin-11(12H)-yl-carbonyl)phenyl]benzamide]	40 nM	–
O=C(Nc1ccc(C(=O)N2CC3COCCN3Cc3ccccc32)c(Cl)c1)c1cc(F)ccc1-c1ccccc1 (racemic) [Compound 111, (RS)-2-Phenyl-5-fluoro-N-[3-chloro-4-(1,3,4,12a-tetrahydro-6H-[1,4]oxazino[4,3-a][1,4]-benzodiazepin-11(12H)-yl-carbonyl)phenyl]benzamide]	23 nM	–
CN1CCN2Cc3ccccc3N(C(=O)c3ccc(NC(=O)c4ccccc4F)cc3Cl)CC2C1 (racemic) [Compound 64, (RS)-2-Fluoro-N-[3-chloro-4-(1,3,4,12a-tetrahydro-2-methyl-6H-[1,4]pyrazino[4,3-a][1,4]-benzodiazepin-11(12H)-yl-carbonyl)phenyl]benzamide]	–	V2 Bdg % inh [1]: 0% and 5%
(RS)-2,3-Difluoro-N-[3-chloro-4-(1,3,4,12a-tetrahydro-2-methyl-6H-[1,4]pyrazino[4,3-a][1,4]-benzodiazepin-11(12H)-yl-carbonyl)phenyl]benzamide [Compound 101]	–	V1 Bdg % inh [2]: (6%/1 uM)
Cc1cccc2c1N(C(=O)c1ccc(NC(=O)c3ccccc3-c3ccccc3)cc1)CC1CSCCN1C2 (racemic) [Compound 39, (RS)-2-Phenyl-N-[4-(10-methyl-1,3,4,12a-tetrahydro-6H-[1,4]thiazino[4,3-a][1,4]-benzodiazepin-11(12H)-yl-carbonyl)phenyl]benzamide]	–	inhibition at 0.1 µM [1]: 37%
COc1cccc(-c2ccccc2C(=O)Nc2ccc(C(=O)N3CC4COCCN4Cc4ccccc43)c(Cl)c2)c1 (racemic) [Compound 113, (RS)-2-(3-Methoxy-phenyl)-N-[3-chloro-4-(1,3,4,12a-tetrahydro-6H-[1,4]oxazino[4,3-a][1,4]-benzodiazepin-11(12H)-yl-carbonyl)phenyl]benzamide]	8 nM	–
Cc1cccc(C(=O)Nc2ccc(C(=O)N3CC4CN(C)CCN4Cc4ccccc43)c(Cl)c2)c1C (racemic) [Compound 62, (RS)-2,3-Dimethyl-N-[3-chloro-4-(1,3,4,12a-tetrahydro-2-methyl-6H-[1,4]pyrazino[4,3-a][1,4]-benzodiazepin-11(12H)-yl-carbonyl)phenyl]benzamide]	–	V2 Bdg % inh [1]: 28% and 48%
O=C(Nc1ccc(C(=O)N2C[C@H]3COCCN3Cc3ccccc32)c(Cl)c1)c1ccc(O)cc1-c1ccccc1 [Compound 6, (S)-2-Phenyl-4-hydroxy-N-[3-chloro-4-(1,3,4,12a-tetrahydro-6H-[1,4]oxazino[4,3-a][1,4]-benzodiazepin-11(12H)-yl-carbonyl)phenyl]benzamide]	–	inhibition at 0.1 µM ([2]; read-out: V1 Bdg (% inh, 0.1 uM)): 49%
O=C(Nc1ccc(C(=O)N2CC3CS(=O)(=O)CCN3Cc3ccccc32)cc1)c1ccccc1-c1ccccc1 (racemic) [Compound 55, (RS)-2-Phenyl-N-[4-(1,3,4,12a-tetrahydro-2,2-dioxo-6H-[1,4]thiazino[4,3-a][1,4]-benzodiazepin-11(12H)-yl-carbonyl)phenyl]benzamide]	140 nM	–
COc1ccc(-c2ccccc2)c(C(=O)Nc2ccc(C(=O)N3CC4COCCN4Cc4ccccc43)c(Cl)c2)c1 (racemic) [Compound 116, (RS)-2-Phenyl-5-methoxy-N-[3-chloro-4-(1,3,4,12a-tetrahydro-6H-[1,4]oxazino[4,3-a][1,4]-benzodiazepin-11(12H)-yl-carbonyl)phenyl]benzamide]	37 nM	–
COc1cc(C(=O)N2CC3CN(C)CCN3Cc3ccccc32)ccc1NC(=O)c1ccccc1C (racemic) [Compound 71, (RS)-2-Methyl-N-[2-methoxy-4-(1,3,4,12a-tetrahydro-2-methyl-6H-[1,4]pyrazino[4,3-a][1,4]-benzodiazepin-11(12H)-yl-carbonyl)phenyl]benzamide]	–	V1 Bdg % inh [2]: (12%/1 uM)
COc1cc(C(=O)N2CC3CN(C)CCN3Cc3ccccc32)ccc1NC(=O)c1ccccc1-c1ccc(C)cc1 (racemic) [Compound 73, (RS)-2-(4-Methyl-phenyl)-N-[2-methoxy-4-(1,3,4,12a-tetrahydro-2-methyl-6H-[1,4]pyrazino[4,3-a][1,4]-benzodiazepin-11(12H)-yl-carbonyl)phenyl]benzamide]	43 nM	inhibition at 0.1 µM [1]: 73%
Cc1ccc(-c2ccccc2C(=O)Nc2ccc(C(=O)N3CC4COCCN4Cc4ccccc43)cc2)cc1 (racemic) [Compound 12, (RS)-2-(4-Methyl-phenyl)-N-[4-(1,3,4,12a-tetrahydro-6H-[1,4]oxazino[4,3-a][1,4]-benzodiazepin-11(12H)-yl-carbonyl)phenyl]benzamide]	6 nM	–
O=C(Nc1ccc(C(=O)N2CC3CSCCN3Cc3ccccc32)c(F)c1)c1ccccc1-c1ccsc1 (racemic) [Compound 51, (RS)-2-(3-Thienyl)-N-[3-fluoro-4-(1,3,4,12a-tetrahydro-6H-[1,4]thiazino[4,3-a][1,4]-benzodiazepin-11(12H)-yl-carbonyl)phenyl]benzamide]	–	V2 Bdg % inh [1]: (62%/0.1 uM)
Cc1ccccc1C(=O)Nc1ccc(C(=O)N2CC3CN(C)CCN3Cc3ccccc32)c(C(F)(F)F)c1 (racemic) [Compound 74, (RS)-2-M ethyl-N-[3-trifluoromethyl-4-(1,3,4,12a-tetrahydro-2-methyl-6H-[1,4]pyrazino[4,3-a][1,4]-benzodiazepin-11(12H)-yl-carbonyl)phenyl]benzamide]	–	V2 Bdg % inh [1]: (4%/0.1 uM)
O=C(Nc1ccc(C(=O)N2C[C@H]3CSCCN3Cc3ccccc32)c(Cl)c1)c1ccccc1-c1ccccc1 [Compound 47, (S)-2-Phenyl-N-[3-chloro-4-(1,3,4,12a-tetrahydro-6H-[1,4]thiazino[4,3-a][1,4]-benzodiazepin-11(12H)-yl-carbonyl)phenyl]benzamide]	11 nM	–
Cc1ccc(F)cc1C(=O)Nc1ccc(C(=O)N2CC3COCCN3Cc3ccccc32)c(Cl)c1 (racemic) [Compound 110, (RS)-2-Methyl-5-fluoro-N-[3-chloro-4-(1,3,4,12a-tetrahydro-6H-[1,4]oxazino[4,3-a][1,4]-benzodiazepin-11(12H)-yl-carbonyl)phenyl]benzamide]	6 nM	–
CN1CCN2Cc3ccccc3N(C(=O)c3ccc(NC(=O)c4ccccc4-c4ccccc4)cc3Cl)CC2C1 (racemic) [Compound 56, (RS)-2-Phenyl-N-[3-chloro-4-(1,3,4,12a-tetrahydro-2-methyl-6H-[1,4]pyrazino[4,3-a][1,4]-benzodiazepin-11(12H)-yl-carbonyl)phenyl]benzamide]	35 nM and 54 nM	inhibition at 0.1 µM [1]: 71%
O=C(Nc1ccc(C(=O)N2CC3CSCCN3Cc3ccccc32)c(Cl)c1)c1ccc(F)cc1-c1ccccc1 (racemic) [Compound 105, (RS)-2-Phenyl-4-fluoro-N-[3-chloro-4-(1,3,4,12a-tetrahydro-6H-[1,4]thiazino[4,3-a][1,4]-benzodiazepin-11(12H)-yl-carbonyl)phenyl]benzamide]	8 nM	–
